{"source": "patent US8841633B2", "about": "“Method and apparatus for detecting pharmaceuticals in a sample” (priority 2009, dated 2014)", "key": {"[1]": {"conditions": "mean of three ± SEM", "procedure": "The values are given as mean values of three measurements±standard error of the mean.\n(§1) In connection with the retrieval of the blood sample, the patients respective International Normalized Ratio (INR) were measured, which is a well known type of measure indicative of the coagulation of the blood."}, "coagulation of the blood": {"system": "coagulation of the blood", "assay": "International Normalized Ratio (INR) of patients treated with warfarin", "format": "in vivo, human", "procedure": "as §1"}, "[2]": {"assay": "time-resolved fluorescence of isolated warfarin in PBS", "format": "physicochemical", "conditions": "excitation 334 nm"}, "[3]": {"conditions": "blood sample of patient no. 1 treated with warfarin"}, "[4]": {"conditions": "blood sample of patient no. 2 treated with warfarin"}}, "note": "Read-outs that look alike come from different tables or passages of the source.", "data": [{"compound": "CC(=O)CC(c1ccccc1)c1c(O)c2ccccc2oc1=O", "note": "(stereo not shown) [Warfarin, warfarin]", "values": [{"measurement": "Amplitude A1", "setting": "[1]; [3]", "value": "69.4 ± 0.2", "unit": "%"}, {"measurement": "Amplitude A2", "setting": "[1]; [3]", "value": "21.0 ± 0.2", "unit": "%"}, {"measurement": "Amplitude A3", "setting": "[1]; [3]", "value": "9.6 ± 0.1", "unit": "%"}, {"measurement": "Fluorescence lifetime τ1", "setting": "[1]; [3]", "value": "0.10 ± 0.00", "unit": "ns"}, {"measurement": "Fluorescence lifetime τ2", "setting": "[1]; [3]", "value": "1.50 ± 0.04", "unit": "ns"}, {"measurement": "Fluorescence lifetime τ3", "setting": "[1]; [3]", "value": "4.05 ± 0.01", "unit": "ns"}, {"measurement": "Amplitude A1", "setting": "[1]; [4]", "value": "96.0 ± 0.3", "unit": "%"}, {"measurement": "Amplitude A3", "setting": "[1]; [4]", "value": "4.0 ± 0.3", "unit": "%"}, {"measurement": "Fluorescence lifetime τ1", "setting": "[1]; [4]", "value": "0.06 ± 0.00", "unit": "ns"}, {"measurement": "Fluorescence lifetime τ3", "setting": "[1]; [4]", "value": "2.77 ± 0.02", "unit": "ns"}, {"measurement": "INR value", "setting": "coagulation of the blood; patient no. 1 treated with warfarin", "value": 3.0}, {"measurement": "INR value", "setting": "coagulation of the blood; patient no. 2 treated with warfarin", "value": 1.9}, {"measurement": "excited state lifetime τ1 (unresolved)", "setting": "[2]", "value": "≤ 100", "unit": "ps"}]}]}
